In patent US12377063B2, “Combination therapies for managing cancer” (Emory University, priority 2019, dated 2025):

Legend:
Type in all cases: cell-based
[1] = test system: pPDHS293 in follower cells; assay: pPDHS293 after alexidine treatment, follower cells
[2] = test system: multiple lung and mixed leader:follower lines; assay: Collective invasion of spheroids embedded in Matrigel; conditions: alexidine alone
Source text: Brightfield representative images are shown. Solid lines designate outer perimeter. Scale bar=50 μm.
(§1) Compounds were screened, and it was discovered that most compounds effective at inhibiting lead cells were typically anti-metabolic agents that disrupt OXPHOS. One such compound, alexidine hydrochloride targets mitochondrial function. Leader cells are sensitive to mitochondria-targeting agents as a class.
(§2) Since alexidine inhibits active PDH in leaders and Bay-876 targets GLUT1, the combination of alexidine and Bay-876 to co-target these cellular subtypes, respectively, during collective invasion was examined. To quantitatively determine synergy a combination index analyses was used. […] Importantly, normal lung epithelial cells (HBEC, MRC5) had no synergy at low and moderate doses (FIG. 8A). The effects of Bay-876 plus alexidine on invasion were examined. […] It is also contemplated that one can co-target metabolically heterogeneous populations using the combination of the leader cell targeting agent, alexidine, and the GLUT1 targeting agent, BAY-876 or the glycolytic/PPP activity of followers and OXHOS-driven biology of the leaders in a manor illustrated in the table below.

leader cells [3] = assay: Lactate production after alexidine treatment; conditions: alexidine treatment for 24 hours
leader cells [4] = assay: Cell death in leader cells; conditions: after 72 hours
Source text: as §1

[5] = test system: p-PDHS293 in leader cells; assay: p-PDHS293 after alexidine treatment, leader cells; conditions: alexidine treatment for 24 hours
Source text: Alexidine Dihydrochloride Induces Metabolic Reprogramming of Leader Cells Via S293 Phosphorylation of PDH
as §2

follower/leader cells = conditions: leaders vs followers; 72 hrs of treatment; FIG. 3D
[6] = test system: GLUT1 mRNA expression in followers; assay: GLUT1 mRNA expression by qRT-PCR; conditions: 24 hrs, FIG. 7C
Protocol: (§3) To determine how GLUT1 expression in followers could be regulated upstream, signaling alterations that might contribute to altered GLUT1 expression in leaders and followers were evaluated. YAP and TAZ are transcriptional co-activators of TEAD (Hippo signaling) and regulate GLUT1 expression. YAP/TEAD 1-4 members were interrogated. […] Cells were treated with the YAP/TEAD inhibitor, verteporfin, which has promising anti-tumor activity.

H1299 cells = assay: Cell number / viability after verteporfin; conditions: parental H1299 cells; 72 hours; FIG. 7D
Protocol: as §3

parental H1299 cells = assay: Spheroid invasion assay, parental H1299; conditions: FIG. 7E
Protocol: as §3

## CCCCC(CC)CNC(=N)NC(=N)NCCCCCCNC(=N)NC(=N)NCC(CC)CCCC (centres unmarked) [Alexidine, 1,1′-(hexane-1,6-diyl)bis(5-(2-ethylhexyl)biguanidine)]
[1]
  impact on pPDHS293: no significant impact
[2]; earlier time points prior to effect on proliferation
  doses decreasing invasiveness relative to doses inducing cell death: doses lower than those that induce cell death
[2]; multiple lung cell lines
  collective invasion: dose-dependent inhibition
Leader cells [3]
  lactate production: increased lactate production
Leader cells [4]
  cell death: no significant amount of cell death
[5]
  p-PDHS293 level: increased p-PDHS293

## CN(C)C(=N)N=C(N)N [metformin]
follower/leader cells
  sensitivity of leaders to complex I inhibitors (proliferation): increased sensitivity

## C/C=C(\C)[C@H](O)[C@H](C)/C=C(C)/C=C/C/C(C)=C/Cc1nc(OC)c(OC)c(O)c1C [piericidin, piericidin A]
follower/leader cells
  sensitivity of leaders to complex I inhibitors (proliferation): increased sensitivity

## verteporfin
[6]
  GLUT1 mRNA expression: suppressed GLUT1 mRNA expression in followers in a dose-dependent manner
H1299 cells
  proliferative properties (cell number): significantly reduced
Parental H1299 cells
  invasive properties (invasive area): significantly reduced
